Patent US8557796B2, “Substituted 1-oxa-2,8-diaza-spiro [4,5] dec-2-ene derivatives and related treatment methods” (Gruenenthal GmbH, priority 2001, dated 2013)

molecular target: T1, NA transporter (Rattus norvegicus, UniProt Q9WTR4); experiment: Noradrenalin uptake inhibition (NA-uptake) in synaptosomes; type: biochemical; conditions: rat hypothalamus synaptosomes
T1 construct: synaptosomes from rat brain regions were freshly isolated; from tissue; host or cells: P2 synaptosome fraction from hypothalamus of male rat brain
T1 sequence (Q9WTR4 1-597): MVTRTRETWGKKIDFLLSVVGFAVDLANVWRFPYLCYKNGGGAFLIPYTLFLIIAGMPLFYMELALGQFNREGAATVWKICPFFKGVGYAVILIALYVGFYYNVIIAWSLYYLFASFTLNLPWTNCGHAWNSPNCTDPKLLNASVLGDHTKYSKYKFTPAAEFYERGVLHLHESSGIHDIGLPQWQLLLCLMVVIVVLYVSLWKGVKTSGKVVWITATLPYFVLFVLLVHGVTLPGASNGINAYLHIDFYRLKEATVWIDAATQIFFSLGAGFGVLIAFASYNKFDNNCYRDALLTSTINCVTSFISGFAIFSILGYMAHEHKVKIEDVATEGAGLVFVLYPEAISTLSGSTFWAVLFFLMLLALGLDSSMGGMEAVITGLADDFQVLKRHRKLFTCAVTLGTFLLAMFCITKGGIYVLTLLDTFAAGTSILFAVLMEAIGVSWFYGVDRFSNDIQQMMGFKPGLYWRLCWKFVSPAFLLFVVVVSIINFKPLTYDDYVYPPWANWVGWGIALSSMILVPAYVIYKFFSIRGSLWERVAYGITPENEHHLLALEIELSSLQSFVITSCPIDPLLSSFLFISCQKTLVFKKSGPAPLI
Description: Tests on Noradrenalin Uptake Inhibition (NA-Uptake Inhibition)
In order to be able to carry out these in vitro studies, synaptosomes from rat brain regions were freshly isolated.

SMILES	inhibition at 10 µM [%]	NA-uptake, 10 μM, % inhibition [%]
O=C(NCc1ccc2c(c1)OCO2)C1=NOC2(CCN(S(=O)(=O)c3ccc(Cl)s3)CC2)C1 [Example 30, 8-(5-chloro-thiophene-2-sulphonyl)-1-oxa-2,8-diaza-spiro[4,5]dec-2-ene-3-carboxylic acid (benzo[1,3]dioxol-5-ylmethyl)-amide]	48	–
O=C(NCC1COc2ccccc2O1)C1=NOC2(CCN(S(=O)(=O)c3ccc(Cl)s3)CC2)C1 (centres unmarked) [Example 194, 8-(5-chloro-thiophene-2-sulphonyl)-1-oxa-2,8-diaza-spiro[4,5]dec-2-ene-3-carboxylic acid (2,3-dihydro-benzo[1,4]dioxin-2-ylmethyl)-amide]	65	–
Cc1oc(C(C)(C)C)cc1C(=O)N1CCC2(CC1)CC(C(=O)NCC(C)C)=NO2 [Example 105, 8-(5-tert-butyl-2-methyl-furan-3-carbonyl)-1-oxa-2,8-diaza-spiro[4,5]dec-2-ene-3-carboxylic acid isobutyl-amide]	53	–
Cc1ccc(F)c(C(=O)N2CCC3(CC2)CC(C(=O)NCc2cccs2)=NO3)c1F [Example 170, 8-(2,6-difluoro-3-methyl-benzoyl)-1-oxa-2,8-diaza-spiro[4,5]dec-2-ene-3-carboxylic acid (thiophen-2-ylmethyl)-amide]	43	–
CC(NC(=O)C1=NOC2(CCN(S(=O)(=O)c3ccc(Cl)s3)CC2)C1)c1cccc2c1OCCO2 (centres unmarked) [Example 140, 8-(5-chloro-thiophene-2-sulphonyl)-1-oxa-2,8-diaza-spiro[4,5]dec-2-ene-3-carboxylic acid [1-(2,3-dihydro-benzo[1,4]dioxin-5-yl)-ethyl]-amide]	83	–
Cc1ccc(S(=O)(=O)N2CCC3(CC2)CC(C(=O)NC2CC2c2ccccc2)=NO3)cc1 (centres unmarked) [Example 75, 8-(toluene-4-sulphonyl)-1-oxa-2,8-diaza-spiro[4,5]dec-2-ene-3-carboxylic acid (2-phenyl-cyclopropyl)-amide]	65	–
O=C(NCc1cccs1)C1=NOC2(CCN(C(=O)c3cccc(Cl)c3F)CC2)C1 [Example 146, 8-(3-chloro-2-fluorobenzoyl)-1-oxa-2,8-diaza-spiro[4,5]dec-2-ene-3-carboxylic acid (thiophen-2-ylmethyl)-amide]	61	–
CC(Oc1ccccc1)C(=O)N1CCC2(CC1)CC(C(=O)NCC1CC1)=NO2 (centres unmarked) [Example 123, 8-(2-phenoxy-propionyl)-1-oxa-2,8-diaza-spiro[4,5]dec-2-ene-3-carboxylic acid cyclopropylmethyl-amide]	42	–
CCOC(=O)C1CCCCN1C(=O)C1=NOC2(CCN(S(=O)(=O)c3ccc(Cl)s3)CC2)C1 (centres unmarked) [Example 155, 1-[8-(5-chloro-thiophene-2-sulphonyl)-1-oxa-2,8-diaza-spiro[4,5]dec-2-ene-3-carbonyl]-piperidine-2-carboxylic acid ethyl ester]	41	–
Cc1oc(C(C)(C)C)cc1C(=O)N1CCC2(CC1)CC(C(=O)NC1CCCC1)=NO2 [Example 126, 8-(5-tert-butyl-2-methyl-furan-3-carbonyl)-1-oxa-2,8-diaza-spiro[4,5]dec-2-ene-3-carboxylic acid cyclopentylamide]	67	–
COc1cccc(CCNC(=O)C2=NOC3(CCN(S(=O)(=O)c4ccc(F)cc4)CC3)C2)c1 [Example 124, 8-(4-fluoro-benzenesulphonyl)-1-oxa-2,8-diaza-spiro[4,5]dec-2-ene-3-carboxylic acid [2-(3-methoxy-phenyl)-ethyl]-amide]	49	–
O=C(NCc1ccccc1)C1=NOC2(CCN(C(=O)COCc3ccccc3)CC2)C1 [Example 171, 8-(2-benzyloxy-acetyl)-1-oxa-2,8-diaza-spiro[4,5]dec-2-ene-3-carboxylic acid benzylamide]	73	–
O=C(NCc1cccc(Cl)c1)C1=NOC2(CCN(S(=O)(=O)c3cccc(C(F)(F)F)c3)CC2)C1 [Example 132, 8-(3-trifluoromethyl-benzenesulphonyl)-1-oxa-2,8-diaza-spiro[4,5]dec-2-ene-3-carboxylic acid 3-chlorobenzylamide]	46	–
O=C(NCCCc1ccccc1)C1=NOC2(CCN(S(=O)(=O)c3ccc(F)cc3)CC2)C1 [Example 193, 8-(4-fluoro-benzenesulphonyl)-1-oxa-2,8-diaza-spiro[4,5]dec-2-ene-3-carboxylic acid (3-phenyl-propyl)-amide]	47	–
O=C(NCCc1ccc(F)cc1)C1=NOC2(CCN(S(=O)(=O)c3ccc(OC(F)(F)F)cc3)CC2)C1 [Example 129, 8-(4-trifluoromethoxy-benzenesulphonyl)-1-oxa-2,8-diaza-spiro[4,5]dec-2-ene-3-carboxylic acid [2-(4-fluorophenyl)-ethyl]-amide]	43	–
CC(NC(=O)C1=NOC2(CCN(S(=O)(=O)c3ccc(F)cc3)CC2)C1)c1ccc([N+](=O)[O-])cc1 (centres unmarked) [Example 213, 8-(4-fluoro-benzenesulphonyl)-1-oxa-2,8-diaza-spiro[4,5]dec-2-ene-3-carboxylic acid [1-(4-nitro-phenyl)-ethyl]-amide]	46	–

SMILES	inhibition at 10 µM [%]	NA-uptake, 10 μM, % inhibition [%]
O=C(NCc1cccs1)C1=NOC2(CCN(C(=O)c3ccc(F)c(Cl)c3)CC2)C1 [Example 184, 8-(3-chloro-4-fluorobenzoyl)-1-oxa-2,8-diaza-spiro[4,5]dec-2-ene-3-carboxylic acid (thiophen-2-ylmethyl)-amide]	62	–
CC(Oc1ccccc1)C(=O)N1CCC2(CC1)CC(C(=O)NCc1ccccc1)=NO2 (centres unmarked) [Example 149, 8-(2-phenoxy-propionyl)-1-oxa-2,8-diaza-spiro[4,5]dec-2-ene-3-carboxylic acid benzylamide]	50	–
O=C(NCc1ccccc1)C1=NOC2(CCN(S(=O)(=O)c3cccc(Cl)c3)CC2)C1 [Example 210, 8-(3-chloro-benzenesulphonyl)-1-oxa-2,8-diaza-spiro[4,5]dec-2-ene-3-carboxylic acid benzylamide]	42	–
O=C(NCc1cccs1)C1=NOC2(CCN(C(=O)COc3cccc(Cl)c3)CC2)C1 [Example 96, 8-[2-(3-chloro-phenoxy)-acetyl]-1-oxa-2,8-diaza-spiro[4,5]dec-2-ene-3-carboxylic acid (thiophen-2-ylmethyl)-amide]	49	–
CN(C)S(=O)(=O)N1CCC2(CC1)CC(C(=O)N1CCN(Cc3ccc(C(C)(C)C)cc3)CC1)=NO2 [Example 189, 3-[4-(4-tert-butyl-benzyl)-piperazine-1-carbonyl]-1-oxa-2,8-diaza-spiro[4,5]dec-2-ene-8-sulphonic acid dimethylamide]	45	–
O=C(NCc1ccccc1)C1=NOC2(CCN(C(=O)c3cccc(SC(F)F)c3)CC2)C1 [Example 180, 8-(3-difluoromethylsulphanyl-benzoyl)-1-oxa-2,8-diaza-spiro[4,5]dec-2-ene-3-carboxylic acid benzylamide]	61	–
Cc1onc(-c2c(F)cccc2Cl)c1C(=O)N1CCC2(CC1)CC(C(=O)NCc1ccccc1)=NO2 [Example 177, 8-[3-(2-chloro-6-fluorophenyl)-5-methyl-isoxazole-4-carbonyl]-1-oxa-2,8-diaza-spiro [4,5]dec-2-ene-3-carboxylic acid benzylamide]	47	–
CC(NC(=O)C1=NOC2(CCN(S(=O)(=O)c3ccc(F)cc3)CC2)C1)C(=O)Nc1ccc2ccccc2c1 (centres unmarked) [Example 198, 8-(4-fluoro-benzenesulphonyl)-1-oxa-2,8-diaza-spiro[4,5]dec-2-ene-3-carboxylic acid [1-(naphthalen-2-ylcarbamoyl)ethyl]-amide]	52	–
CSc1ncccc1C(=O)N1CCC2(CC1)CC(C(=O)NCC(C)C)=NO2 [Example 125, 8-(2-methylsulphanyl-pyridine-3-carbonyl)-1-oxa-2,8-diaza-spiro[4,5]dec-2-ene-3-carboxylic acid isobutyl-amide]	40	–
CCOC(=O)C1CCCCN1C(=O)C1=NOC2(CCN(C(=O)c3cc(C(C)(C)C)oc3C)CC2)C1 (centres unmarked) [Example 179, 1-[8-(5-tert-butyl-2-methyl-furan-3-carbonyl)-1-oxa-2,8-diaza-spiro[4,5]dec-2-ene-3-carbonyl]-piperidine-2-carboxylic acid ethyl ester]	49	–
CN(C)S(=O)(=O)N1CCC2(CC1)CC(C(=O)NC1CCCC1OCc1ccccc1)=NO2 (centres unmarked) [Example 163, 8-dimethylsulphamoyl-1-oxa-2,8-diaza-spiro[4,5]dec-2-ene-3-acarboxylic cid (2-benzyloxy-cyclopentyl)-amide]	–	62
O=C(C1=NOC2(CCN(S(=O)(=O)c3cccc(C(F)(F)F)c3)CC2)C1)N1CCC(Cc2ccccc2)CC1 [Example 211, (4-benzyl-piperidin-l-yl)-[8-(3-trifluoromethyl-benzene-sulphonyl)-1-oxa-2,8-diaza-spiro[4,5]dec-2-en-3-yl]-methanone]	–	49
O=C(NCC(c1ccccc1)c1ccccc1)C1=NOC2(CCN(S(=O)(=O)c3ccc(Cl)s3)CC2)C1 [Example 79, 8-(5-chloro-thiophene-2-sulphonyl)-1-oxa-2,8-diaza-spiro[4,5]dec-2-ene-3-carboxylic acid (2,2-diphenyl-ethyl)-amide]	58	–
O=C(NCCCn1ccnc1)C1=NOC2(CCN(S(=O)(=O)c3ccc(F)cc3)CC2)C1 [Example 142, 8-(4-fluoro-benzenesulphonyl)-1-oxa-2,8-diaza-spiro[4,5]dec-2-ene-3-carboxylic acid (3-imidazol-1-yl-propyl)-amide]	49	–
CCOC(=O)CCNC(=O)C1=NOC2(CCN(S(=O)(=O)c3ccccc3Cl)CC2)C1 [Example 116, 3-{[8-(2-chloro-benzenesulphonyl)-1-oxa-2,8-diaza-spiro[4,5]dec-2-ene-3-carbonyl]-amino}-propionic acid ethyl ester]	60	–

same assay, conditions: rat hypothalamus synaptosomes, 10 µM

SMILES	NA-uptake, 10 μM, % inhibition [%]
COc1ccc(S(=O)(=O)N2CCC3(CC2)CC(C(=O)NC2CCCC2OCc2ccccc2)=NO3)cc1 (centres unmarked) [Example 121, 8-(4-methoxy-benzenesulphonyl)-1-oxa-2,8-diaza-spiro[4,5]dec-2-ene-3-carboxylic acid (2-benzyloxy-cyclopentyl)-amide]	55
